Reference: patent publication US7586022B2, “Transgenic non-human animal model of lung tumorigenesis” (Trustees of Dartmouth College, priority 2006, dated 2009)
“Also recorded” adds a separate entry of the source.

Experiments:
exogenous cyclin E = exogenous cyclin E expression in retrovirally transduced BEAS-2B cells treated with agents; assay type: cell-based, human; conditions: treated for 24, 36 and 48 hours
Procedure: To determine whether other agents could modulate the expression of cyclin E, […], N-(4-hydroxyphenyl)retinamide (4HPR or fenretinide), or other non-classical retinoids for 24, 36 and 48 hours.

[1] = system: BEAS-2B human bronchial epithelial cells; conditions: cited from earlier work

Row | Structure (SMILES) | exogenous cyclin E expression (exogenous cyclin E) | NNK-mediated transformation ([1]; BEAS-2B cells exposed to NNK) | cyclin E expression ([1]; RA treatment)
1 | CC1(C)CC[C@]2(C(=O)O)CC[C@]3(C)[C@H](C(=O)C=C4[C@@]5(C)C=C(C#N)C(=O)C(C)(C)[C@@H]5CC[C@]43C)[C@@H]2C1 [CDDO, 2-cyano-3,12-dioxooleana-1,9-dien-28-oic acid] | potently repress exogenous cyclin E expression; also recorded: most potently decreased exogenous cyclin E expression, as early as 24 hours after treatment |  | 
2 | CC1=C(/C=C/C(C)=C/C=C/C(C)=C/C(=O)O)C(C)(C)CCC1 [RA, All-trans-retinoic acid] |  | antagonizes NNK-mediated transformation by causing G1 arrest | represses cyclin E expression via activation of a proteosomal degradation pathway
